{
  "source": "patent US20250092345A1",
  "about": "“INTER ORGAN PLATFORM FOR MICROPHYSIOLOGICAL SYSTEM ON A CHIP” (THE TRUSTEES OF COLUMBIA UNIVERSITY IN THE CITY OF NEW YORK, priority 2020, published 2025)",
  "key": {"[1]": {"details": "cited from earlier work"}, "[2]": {"system": "engineered cardiac tissues", "assay": "Engineered cardiac tissues in isolation, linsitinib cardiotoxicity", "assay_type": "cell-based, human", "details": "after linsitinib exposure, isolated", "from_the_text": "After establishing the capability of TE-ES tumors to model drug efficacy, we evaluated the ability of cardiac tissues to determine the cardiotoxicity of linsitinib. Cardiac tissues were exposed to the same therapeutic concentration of linsitinib as bone tumors. […] Cardiotoxicity of linsitinib has been observed in clinical trials of other types of cancer, with patients presenting proarrhythmic events, like tachycardia (3.75-5% of patients) and atrial fibrillation (3.75-5%). We observed higher beat frequency and higher rate of proarrhythmic events per beat (around 36%) than in clinical studies (FIG. 32B and FIG. 32C). […]\nCardiac tissues were studied using caffeine (50 mM in water; Sigma-Aldrich), amiodarone hydrochloride (2.418 µM in DMSO; Sigma-Aldrich), isoproterenol hydrochloride (a series of drug concentrations in water; Sigma-Aldrich) or doxorubicin hydrochloride (1 µM in DMSO; Sigma-Aldrich), all diluted in RPMI Medium 1640 supplemented with B-27[…]. Response to isoproterenol was analyzed 10 minutes after exposure to […] isoproterenol hydrochloride, diluted in RPMI Medium […] supplemented with B27[…]. […]\nTo measure the cardiac contractility online, we took contractility videos of the tissues that were analyzed using the native MATLAB code we previously developed. Tissue contractility was measured by tracking the change in tissue area as a function of time. […]"}},
  "data": [
    {"molecule": "C[C@]1(O)C[C@@H](c2nc(-c3ccc4ccc(-c5ccccc5)nc4c3)c3c(N)nccn32)C1", "note": "[linsitinib]", "values": [
      {"measurement": "clinical outcome in ES", "setting": "[1]; Phase II clinical trial, no patients completing the trial", "result": "unable to stop progression of ES"},
      {"measurement": "atrial fibrillation", "setting": "[1]; clinical trials of other types of cancer", "result": "3.75-5%"},
      {"measurement": "inotropic response to subsequent isoproterenol", "setting": "[2]", "result": "not observed"}
    ]}
  ]
}
